Drawing on patent US12139508B2, “Steroid derivative regulators, method for preparing the same, and uses thereof” (JIANGSU HANSOH PHARMACEUTICAL GROUP CO., LTD., priority 2018, dated 2024), this text covers IC50 for 15 compounds.

As usually defined, the IC50 is the concentration that inhibits the measured activity by half.

The target in this experiment is GABA-A receptor. Briefly: 35S-TBPS binding assay (GABAA receptor binding ability test). Further details: species or system Sprague-Dawley rat. The following applies: rat cerebral cortex cell membrane, 5 μM GABA, 2 nM 35S-TBPS; read-out: 35S-TBPS bindng test: IC50 on inhibiting the TBPS binding activity. On the procedure: 1.2 Experimental Procedures 1.2.1 Extraction of Cerebral Cortex Cell Membrane:
1. The cerebral cortex of male Sprague-Dawley rat was isolated.
2. A pre-chilled 0.32 M sucrose solution (one tablet of protease inhibitor was added per 100 ml) was added to the cerebral cortex (the volume of sucrose solution was 10 times the volume of the cerebral cortex). The mixture was crushed with a 50 mL glass tissue homogenizer in batches and mixed well.
3. The mixture was centrifuged at 1500 g, 4° C. for 10 minutes, and the supernatant was collected.
4. The mixture was centrifuged at 20000 g, 4° C. for 30 minutes, and the supernatant was discarded.
5. The precipitate was resuspended with the pre-chilled phosphate buffer saline (PBS) (one tablet of protease inhibitor was added per 100 ml). An average of 4 ml of PBS was added per rat, and the mixture was mixed well by a glass tissue homogenizer.
6. The mixture was centrifuged at 10000 g, 4° C. for 10 minutes, and the supernatant was discarded.
7. Steps 5 and 6 were repeated three times.
8. Finally, the precipitate was resuspended with 4 volumes of PBS. The resulting solution was dispensed, frozen in liquid nitrogen, and stored at −80° C.
9. The protein concentration was measured by the bicinchoninic acid (BCA) method.
1.2.2 ^35S-TBPS Binding Assay
1. 230 μL of PBS was added to each well of a well plate with 1.1 ml volume.
2. 60 μL of the cerebral cortex cell membrane (5 μg/μL) solution was added to each well, and the mixture was mixed well.
3. The test compound (3 μL per well) was added, and the plate was incubated at 25° C. for 5 minutes. The DMSO concentration was 1%. The initial compound concentration was 1 μM, and a 3-fold dilution in gradient was carried out to obtain a total of 8 gradients and 2 replicates. 1% DMSO was used as a negative control, and 10 μM P026-2 was used as a positive control.
4. GABA was added at a final concentration of 5 μM, and incubated at 25° C. for 5 minutes. 1 mM GABA solution was formulated, and 1.5 μL of the solution was added to each well.
5. ^35S-TBPS was added at a final concentration of 2 nM. The concentration of isotope mother solution was 9.7 μM. After dilution with PBS for 100 times, 6 μL of the diluted isotope solution was added to each well.
6. The plate was incubated at 4° C. for 20 hours.
7. The FilterMate GF/C plate was pre-treated with 0.5% PEI, and incubated at 4° C. for 1 hour.
8. The FilterMate GF/C plate was washed with Universal Harvester twice, 50 ml PBS each time.
9. The reaction solution was transferred to the GF/C plate, and each well was washed 4 times with 900 μL of PBS.
10. The washed GF/C plate was placed at 55° C. and dried for 10 minutes.
11. 40 μL of scintillation solution was added to each well, and the CPM value was read with TopCount.
1.2.3 Experimental Data Processing Method:
In the experiment, the CPM (counts per minute) value was read with TopCount. According to the readings of the High control (DMSO) and the Low control ([…] of the positive compound) experimental groups, the […] inhibition was calculated based on the following formula: % Inhibition=100×(CPMHigh control−CPMSample)/(CPMHigh control−CPMLow control)
The IC50 of the compound was calculated according to the following 4-parameter nonlinear logic formula: Y=Bottom+(Top−Bottom)/(1+10^((Log IC50−X)*Hill Slope)),
wherein: • X represents the log of compound concentration, • Y represents the 0 Inhibition.
The effect of the compound of the present invention on the TBPS binding activity was determined by the above test, and the measured IC50 values are shown in Table 1.
Turning to `C[C@@H]1C[C@H](C(=O)COc2ccc(F)cc2F)[C@@]2(C)CC[C@H]3[C@@H](CC[C@@H]4C[C@](C)(O)CC[C@@H]43)[C@H]12` [Example 64, 2-(2,4-Difluorophenoxy)-1-((3R,5R,8R,9R,10S,13S,14S,15R,17S)-3-hydroxy-3,13,15-trimethylhexadecahydro-1H-cyclopenta[a]phenanthren-17-yl)ethan-1-one], the IC50 was 8.6 nM.
Regarding `Cc1cnn(CC(=O)[C@H]2[C@H]3C[C@H]3[C@H]3[C@@H]4CC[C@@H]5C[C@](C)(O)CC[C@@H]5[C@H]4CC[C@@]32C)c1` [Example 95, 1-((2R,4aS,4bR,6aS,7S,7aS,8aR,8bR,8cR,10aR)-2-Hydroxy-2,6a-dimethyloctadecahydrocyclopropa[4,5]cyclopenta[1,2-a]phenanthren-7-yl)-2-(4-methyl-1H-pyrazol-1-yl)ethan-1-one], the IC50 came out at 34.1 nM.
As for `CC[C@@H]1C[C@H](C(=O)Cn2nc(C#N)cc2C#N)[C@@]2(C)CC[C@H]3[C@@H](CC[C@@H]4C[C@](C)(O)CC[C@@H]43)[C@H]12` [Example 142, 1-(2-((3R,5R,8R,9R,10S,13S,14S,15R,17S)-15-Ethyl-3-hydroxy-3,13-dimethylhexadecahydro-1H-cyclopenta[a]phenanthren-17-yl)-2-oxoethyl)-1H-pyrazole-3,5-dicarbonitrile], the figure is 16.2 nM; as for `C[C@@H]1C[C@H](C(=O)COc2cnc(C(F)(F)F)nc2)[C@@]2(C)CC[C@H]3[C@@H](CC[C@@H]4C[C@](C)(O)CC[C@@H]43)[C@H]12` [Example 150, 1-((3R,5R,8R,9R,10S,13S,14S,15R,17S)-3-Hydroxy-3,13,15-trimethylhexadecahydro-1H-cyclopenta[a]phenanthren-17-yl)-2-((2-(trifluoromethyl)pyrimidin-5-yl)oxy)ethan-1-one], 8.8 nM; as for `C[C@@]1(O)CC[C@H]2[C@H](CC[C@@H]3[C@@H]2CC[C@@]2(C)[C@H]3[C@@H]3C[C@@H]3[C@@H]2C(=O)COc2ccc(C#N)cc2F)C1` [Example 125, 3-Fluoro-4-(2-((2R,4aS,4bR,6aS,7S,7aS,8aR,8bR,8cR,10aR)-2-hydroxy-2,6a-dimethyloctadecahydrocyclopropa[4,5]cyclopenta[1,2-a]phenanthren-7-yl)-2-oxoethoxy)benzonitrile], 30.7 nM.
The value for `C[C@@]1(O)CC[C@H]2[C@H](CC[C@@H]3[C@@H]2CC[C@@]2(C)[C@H]3[C@@H]3C[C@@H]3[C@@H]2C(=O)Cn2nccn2)C1` [Example 7, 1-((2R,4aS,4bR,6aS,7S,7aS,8aR,8bR,8cR,10aR)-2-Hydroxy-2,6a-dimethyloctadecahydrocyclopropa[4,5]cyclopenta[1,2-a]phenanthren-7-yl)-2-(2H-1,2,3-triazol-2-yl)ethan-1-one] was 14.7 nM; that for `COc1ccc2nnn(CC(=O)[C@H]3[C@H]4C[C@H]4[C@H]4[C@@H]5CC[C@@H]6C[C@](C)(O)CC[C@@H]6[C@H]5CC[C@@]43C)c2c1` [Example 54A, 1-((2R,4aS,4bR,6aS,7S,7aS,8aR,8bR,8cR,10aR)-2-Hydroxy-2,6a-dimethyloctadecahydrocyclopropa[4,5]cyclopenta[1,2-a]phenanthren-7-yl)-2-(6-methoxy-1H-benzo[d][1,2,3]triazol-1-yl)ethan-1-one] was 11.8 nM.
With `C[C@@]1(O)CC[C@H]2[C@H](CC[C@@H]3[C@@H]2CC[C@@]2(C)[C@H]3[C@@H]3C[C@@H]3[C@@H]2C(=O)Cn2ccnc2)C1` [Example 98, 1-((2R,4aS,4bR,6aS,7S,7aS,8aR,8bR,8cR,10aR)-2-Hydroxy-2,6a-dimethyloctadecahydrocyclopropa[4,5]cyclopenta[1,2-a]phenanthren-7-yl)-2-(1H-imidazol-1-yl)ethan-1-one], the IC50 worked out at 37.8 nM.
Turning to `C[C@@]1(O)CC[C@H]2[C@H](CC[C@@H]3[C@@H]2CC[C@@]2(C)[C@H]3[C@@H]3C[C@@H]3[C@@H]2C(=O)Cn2nc3ccc(F)cc3n2)C1` [Example 92, 2-(5-Fluoro-2H-benzo[d][1,2,3]triazol-2-yl)-1-((2R,4aS,4bR,6aS,7S,7aS,8aR,8bR,8cR,10aR)-2-hydroxy-2,6a-dimethyloctadecahydrocyclopropa[4,5]cyclopenta[1,2-a]phenanthren-7-yl)ethan-1-one], the IC50 worked out at 10.8 nM.
Regarding `C[C@@]1(O)CC[C@H]2[C@H](CC[C@@H]3[C@@H]2CC[C@@]2(C)[C@H]3[C@@H]3C[C@@H]3[C@@H]2C(=O)Cn2ncc(C#N)c2C2CC2)C1` [Example 34, 5-Cyclopropyl-1-(2-((2R,4aS,4bR,6aS,7S,7aS,8aR,8bR,8cR,10aR)-2-hydroxy-2,6a-dimethyloctadecahydrocyclopropa[4,5]cyclopenta[1,2-a]phenanthren-7-yl)-2-oxoethyl)-1H-pyrazole-4-carbonitrile], the IC50 amounted to 28.1 nM.
On to `C[C@@]1(O)CC[C@H]2[C@H](CC[C@@H]3[C@@H]2CC[C@@]2(C)[C@H]3[C@H](C3CC3)C[C@@H]2C(=O)Cn2cc(C#N)c(Cl)n2)C1` [Example 147, 3-Chloro-1-(2-((3R,5R,8R,9R,10S,13S,14S,15S,17S)-15-cyclopropyl-3-hydroxy-3,13-dimethylhexadecahydro-1H-cyclopenta[a]phenanthren-17-yl)-2-oxoethyl)-1H-pyrazole-4-carbonitrile], for which the IC50 came to 24.4 nM.
The value for `C[C@@H]1C[C@H](C(=O)Cn2cc(C#N)c(C3CC3)n2)[C@@]2(C)CC[C@H]3[C@@H](CC[C@@H]4C[C@](C)(O)CC[C@@H]43)[C@H]12` [Example 69, 3-Cyclopropyl-1-(2-((3R,5R,8R,9R,10S,13S,14S,15R,17S)-3-hydroxy-3,13,15-trimethylhexadecahydro-1H-cyclopenta[a]phenanthren-17-yl)-2-oxoethyl)-1H-pyrazole-4-carbo nitrile] was 7.6 nM; that for `C[C@@]1(O)CC[C@H]2[C@H](CC[C@@H]3[C@@H]2CC[C@@]2(C)[C@H]3[C@@H]3C[C@@H]3[C@@H]2C(=O)Cn2cc(Cl)cn2)C1` [Example 18, 2-(4-Chloro-1H-pyrazol-1-yl)-1-((2R,4aS,4bR,6aS,7S,7aS,8aR,8bR,8cR,10aR)-2-hydroxy-2,6a-dimethyloctadecahydrocyclopropa[4,5]cyclopenta[1,2-a]phenanthren-7-yl)ethan-1-one] was 6.4 nM; that for `C[C@@]1(O)CC[C@H]2[C@H](CC[C@@H]3[C@@H]2CC[C@@]2(C)[C@H]3[C@@H]3C[C@@H]3[C@@H]2C(=O)Cn2cc3ccncc3n2)C1` [Example 41, 1-((2R,4aS,4bR,6aS,7S,7aS,8aR,8bR,8cR,10aR)-2-hydroxy-2,6a-dimethyloctadecahydrocyclopropa[4,5]cyclopenta[1,2-a]phenanthren-7-yl)-2-(2H-pyrazolo[3,4-c]pyridin-2-yl)ethan-1-one] was 22.7 nM.
Turning to `CSc1cnn(CC(=O)[C@H]2[C@H]3C[C@H]3[C@H]3[C@@H]4CC[C@@H]5C[C@](C)(O)CC[C@@H]5[C@H]4CC[C@@]32C)c1` [Example 122, 1-((2R,4aS,4bR,6aS,7S,7aS,8aR,8bR,8cR,10aR)-2-Hydroxy-2,6a-dimethyloctadecahydrocyclopropa[4,5]cyclopenta[1,2-a]phenanthren-7-yl)-2-(4-(methylthio)-1H-pyrazol-1-yl)ethan-1-one], the IC50 turned out to be 46 nM.
